Data taken from ChEMBL document CHEMBL4616581, “Current scenario of artemisinin and its analogues for antimalarial activity” (Eur J Med Chem, 2019).
In brackets after ≈: the same amount, converted by molar mass.

How the values were obtained:
Format in all cases: functional, organism-based
Plasmodium falciparum [1] = experiment: Antimalarial activity against Plasmodium falciparum 3D7 after 72 hrs by SYBR green dye-based assay; conditions: 3D7, 72 h
Plasmodium falciparum [2] = experiment: Antimalarial activity against blood stages of chloroquine-sensitive Plasmodium falciparum 3D7
Plasmodium falciparum [3] = experiment: Antimalarial activity against blood stages of chloroquine-resistant Plasmodium falciparum K1

SMILES | EC50 (Plasmodium falciparum [1]) [nM] | EC50 (Plasmodium falciparum [2]) [nM] | IC50 (Plasmodium falciparum [3]) [ng/mL]
C[C@H]1[C@H](OC(=O)CCC(=O)Nc2ccc3ncnc(Nc4ccc(Cl)c(Cl)c4)c3c2)O[C@@H]2O[C@]3(C)CC[C@H]4[C@H](C)CC[C@@H]1[C@@]24OO3 | 1.4 | – | –
C[C@@H]1CC[C@H]2[C@@H](C)C(=O)O[C@@H]3O[C@@]4(C)CC[C@@H]1[C@]32OO4 [ARTEMISININ] | – | 12.1 | 0.68 (≈ 2.41 nM)
C[C@H]1[C@H](OC(=O)CCC(=O)Oc2ccc(Nc3ncnc4ccccc34)cc2)O[C@@H]2O[C@]3(C)CC[C@H]4[C@H](C)CC[C@@H]1[C@@]24OO3 | 3.8 | – | –
